B1: pK15 CT^WT: pK15 cytoplasmic tail fused to GST at its N-terminal end, phosphorylated in vitro by Src (protein)
chain: SQLLNEVELQEVNRDPPNVFGYASILVSGAEESREPSPQPDQSGMSILRVDGGSAFRIDTAQAATQPTDDLYEEVLFPRN
modifications: tyrosine-phosphorylated in vitro by Src; sites not stated for this construct; left off: GST, N-terminal, kept

Columns and labels:
[1] = system: PLCγ1 nSH2 domain (in tSH2 aa 545–772); assay: crystal structure with truncated PLCγ1 tSH2, nSH2 site; assay type: binding; settings: truncated tSH2 (aa 545–772), resolution 2.1 Å
Experimental: A shortened version of the PLCγ1 tSH2 domain (aa 545–772) lacking the linker peptide connecting the PLCγ1 cSH2 and SH3 domains (see Results section) was cloned into a pET28a vector carrying an N-terminal His Tag and a SUMO sequence. Expression was carried out in E. coli and the protein was purified to homogeneity as described above. His-Tag and SUMO were proteolytically removed using SUMO protease (SIGMA) following the manufacturer’s instructions, and the cleaved protein purified on a HisTrap column. Fractions containing cleaved protein were further purified by size exclusion chromatography (SEC) using a Superdex 75 26/600 column (GE Healthcare) equilibrated with 50mM Tris pH7.5, 150mM NaCl and 1mM TCEP buffer. The purified protein in SEC buffer was added to lyophilized phosphorylated 12mer pK15 peptide (DDLpYEEVLFPRN) in a 1:8 molar ratio (Protein: peptide) at a final concentration of 3mg/ml of peptide and 7.5mg/ml protein. Crystals were grown at 293 K using the sitting-drop vapor diffusion method in drops containing 1μl protein solution mixed with 1 μL reservoir solution containing 30% PEG 4000, 0.1M TrisHCl pH 8.5 and 0.2M sodium acetate. The crystals were flash frozen in the mother liquor containing 30% ethylene glycol and diffraction data were collected at P13 at DESY-Hamburg. Data were processed, scaled and reduced with XDS [75], Pointless and programs from the CCP4 suite. […]

PLCγ1 SA R586L or R694L = assay: GST-pulldown, PLCγ1 SA R586L or R694L; assay type: binding; settings: phosphorylated, HEK 293T, versus WT
Experimental: Fig 3 Contribution of individual PLCγ1 SH2 domains to the interaction with phosphorylated pK15. The pK15 CT fused to GST, its Y^481F mutant, or GST alone were bound to glutathione beads, phosphorylated in vitro (+) or left unphosphorylated (-), and a GST pulldown was performed 32h after transfection into HEK-293T cells of expression vectors for S-tagged full-length PLCγ1 (FL) (A) or PLCγ1 SA (B) containing the indicated mutations. (C) pK15 CT WT, its Y^481F mutant or GST were bound to glutathione beads, phosphorylated in vitro (+) or left unphosphorylated (-), and used for a GST pulldown assay 32h after transfecting HEK 293T cells with expression vectors for S-tagged individual PLCγ1 nSH2 or cSH2 domains. […]
HEK293T cells were washed once with cold PBS 30 hours after transfection, lysed in IP buffer (50 mM Tris pH7.6, 60 mM NaCl, 6.25 mM EDTA, 1% (v/v) glycerol, 0.04% (v/v) NP-40) on ice for 30 minutes, sonicated shortly and cleared by centrifugation for 10 minutes at 20.000g, 4°C. […] Beads were then washed 5 times in 500 μl IP buffer (or for purified proteins IP buffer with 200 mM NaCl), suspended in 10 μl of 5x Laemmli sample buffer (60 mM Tris pH6.8, 24% (v/v) glycerol, 2% (v/v) SDS, 5% (v/v) β-mercaptoethanol, 0.01% Bromphenol Blue) and analysed by western blot.

Molecule | binding site occupancy in crystal structure [1] | binding of mutants (GST-pulldown) (PLCγ1 SA R586L or R694L)
DDLpYEEVLFPRN [pK15 12mer, phosphorylated peptide representing the last 12 amino acids of pK15 CT (DDLp…)] | at lower occupancy peptide binding to the nSH2 domain was also observed | –
B1 | – | strongly reduced binding
